Experimental data taken from patent US20080269106A1, “Methods and Compositions for Diagnosis and Treatment of Disorders Involving Macrophages” (priority 2005, published 2008).
d = 2'-deoxy (DNA); r = 2'-OH (RNA)

Legend:
BMP7 = assay: Semi-quantitative RT-PCR of BMP7 in MCF-7 breast cancer cells; assay type: cell-based; conditions: MCF-7 cells
Description: Semi-quantitative RT-PCR was carried out as described (Zhu et al, 2004). Primers were: […]
(§1) Actin was used as the loading control. […] A BMP7 promoter-controlled LacZ reporter and an ERα expression plasmid were injected into cells. […] Wild-type ERα and Erα (E203A/G204A) were cotransfected with the reporter in 293 cells. […] Primer pair #1 flanks two putative ERE half-sites, and primer pair #2 (control) flanks a region ˜3 kb upstream of #1.
This is particularly relevant in light of the fact that a key aspect of reproductive regulation, blastocyst implantation, involves a local induction of BMP7 in response to inflammatory signals (Monroe et al., 2000; Paria et al., 2001).

ERα [1] = molecular target: T1, ERα (Homo sapiens, UniProt P03372); assay: Luciferase reporter driven by human BMP7 proximal promoter in 293 cells; assay type: cell-based; set-up: expressed in transfected cells; host or cells: 293 cells; conditions: combination of E2 and IL-1β
T1 sequence (P03372 1-595): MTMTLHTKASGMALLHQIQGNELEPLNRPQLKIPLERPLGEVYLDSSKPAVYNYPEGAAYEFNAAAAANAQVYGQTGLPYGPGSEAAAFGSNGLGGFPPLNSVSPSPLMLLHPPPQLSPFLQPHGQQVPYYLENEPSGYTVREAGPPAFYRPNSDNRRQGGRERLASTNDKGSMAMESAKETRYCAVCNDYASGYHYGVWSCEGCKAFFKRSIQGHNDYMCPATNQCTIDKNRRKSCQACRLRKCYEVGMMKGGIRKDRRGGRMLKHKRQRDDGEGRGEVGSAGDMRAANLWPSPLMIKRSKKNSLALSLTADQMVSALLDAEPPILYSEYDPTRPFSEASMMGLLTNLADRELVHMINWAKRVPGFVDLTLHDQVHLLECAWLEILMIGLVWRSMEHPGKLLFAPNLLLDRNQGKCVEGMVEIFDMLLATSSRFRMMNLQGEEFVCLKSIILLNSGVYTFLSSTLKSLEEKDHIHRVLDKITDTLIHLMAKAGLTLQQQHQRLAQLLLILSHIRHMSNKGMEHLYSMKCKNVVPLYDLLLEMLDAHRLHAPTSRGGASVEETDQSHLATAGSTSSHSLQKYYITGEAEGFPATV
Description: as §1

ERα [2] = molecular target: T1, ERα; assay: BMP7 promoter-controlled LacZ reporter, single cell nuclear microinjection in Rat-1 cells; assay type: cell-based; set-up: expressed in transfected cells; host or cells: Rat-1 cells; conditions: added to E2
Description: as §1

[3] = molecular target: estrogen receptor-α (ERα) (Homo sapiens, UniProt P03372); conditions: cells null for either MEKK1 or TAB2
Source text: Wild-type MEKK1, C478A MEKK1 (mutant of ubiquitin ligase activity), or D1369A MEKK1 (mutant of kinase activity) was used to rescue IL-1β-dependent activation of the pS2 promoter by 4-OHT in MEFs from MEKK−/− mice.

[4] = system: RARα fusion proteins (AR-N′/RAR, ER-N′/RAR); assay: RARα-dependent reporter with AR-N'/RAR and ER-N'/RAR fusion receptors, single cell microinjection; assay type: cell-based
androgen receptor (AR) [5] = molecular target: T2, androgen receptor (AR) (Homo sapiens, UniProt P10275); assay: ARE-dependent lacZ reporter, single cell nuclear microinjection; assay type: cell-based; conditions: presence of bicalutamide
T2 construct: Nuclear microinjection studies were performed in RWPE1 cells using a Prostate Specific Antigen (PSA) promoter/reporter construct; endogenous in cells; host or cells: RWPE1 prostate cells
T2 sequence (P10275 1-920): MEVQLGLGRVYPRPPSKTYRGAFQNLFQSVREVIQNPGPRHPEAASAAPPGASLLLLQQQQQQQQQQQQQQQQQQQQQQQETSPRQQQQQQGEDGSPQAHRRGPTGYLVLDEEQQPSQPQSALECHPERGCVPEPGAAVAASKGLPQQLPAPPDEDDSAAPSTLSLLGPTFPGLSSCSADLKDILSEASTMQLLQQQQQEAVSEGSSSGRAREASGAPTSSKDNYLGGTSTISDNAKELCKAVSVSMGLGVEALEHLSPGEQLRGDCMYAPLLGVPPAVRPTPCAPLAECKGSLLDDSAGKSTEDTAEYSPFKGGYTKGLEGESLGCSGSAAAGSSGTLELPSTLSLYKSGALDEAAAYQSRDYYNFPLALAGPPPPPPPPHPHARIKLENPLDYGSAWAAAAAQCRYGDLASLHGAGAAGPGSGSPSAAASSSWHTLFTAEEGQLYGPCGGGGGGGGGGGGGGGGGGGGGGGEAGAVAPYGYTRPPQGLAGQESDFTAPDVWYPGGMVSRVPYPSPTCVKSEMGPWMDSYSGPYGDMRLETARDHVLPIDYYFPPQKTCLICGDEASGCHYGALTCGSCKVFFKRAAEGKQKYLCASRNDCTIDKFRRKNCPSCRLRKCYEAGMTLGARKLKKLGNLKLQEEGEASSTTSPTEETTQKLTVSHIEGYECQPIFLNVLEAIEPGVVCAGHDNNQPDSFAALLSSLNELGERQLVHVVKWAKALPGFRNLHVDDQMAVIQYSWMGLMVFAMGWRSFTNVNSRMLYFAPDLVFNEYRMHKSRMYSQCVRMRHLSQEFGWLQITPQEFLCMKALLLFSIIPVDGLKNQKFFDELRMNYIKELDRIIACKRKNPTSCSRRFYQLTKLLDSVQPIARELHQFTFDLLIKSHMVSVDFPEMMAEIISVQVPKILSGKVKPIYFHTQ
Description: Specific IgGs against AR, N-CoR, TAB2, HDAC3, HDAC2, HDAC1, Sin3, or MBD3 were used to immunoprecipitate protein-bound DNA fragments. […] The bound material was eluted and divided into several aliquots, and re-immunoprecipitated with antibodies as shown (2nd IP).
Cells were stained with antibodies directed against the N-CoR, and the fluorescence-conjugated secondary antibody was visualized using deconvoluting microscopy. Merged images with nuclear staining with DAPI are shown. […] 5 ng/ml of leptomycin B (LMB), a nuclear export inhibitor, was also used for 30 min followed by treatment with 10 ng/ml of IL-1β.

androgen receptor (AR) [6] = molecular target: T2, androgen receptor (AR); assay: PSA promoter reporter, single cell nuclear microinjection in RWPE1 cells; assay type: cell-based; conditions: for effect on IL-1β-mediated activator function of bicalutamide: 14mer peptide microinjected, PSA promoter- or ARE-dependent reporters
Source text: One representative of three independent experiments is shown.

endogenous TAB2 = molecular target: T3, endogenous TAB2 (UniProt Q9NYJ8 1-693); assay: 2-step ChIP co-occupancy
T3 construct: Endogenous protein, detected with anti-TAB2 IgG
T3 sequence (looked up): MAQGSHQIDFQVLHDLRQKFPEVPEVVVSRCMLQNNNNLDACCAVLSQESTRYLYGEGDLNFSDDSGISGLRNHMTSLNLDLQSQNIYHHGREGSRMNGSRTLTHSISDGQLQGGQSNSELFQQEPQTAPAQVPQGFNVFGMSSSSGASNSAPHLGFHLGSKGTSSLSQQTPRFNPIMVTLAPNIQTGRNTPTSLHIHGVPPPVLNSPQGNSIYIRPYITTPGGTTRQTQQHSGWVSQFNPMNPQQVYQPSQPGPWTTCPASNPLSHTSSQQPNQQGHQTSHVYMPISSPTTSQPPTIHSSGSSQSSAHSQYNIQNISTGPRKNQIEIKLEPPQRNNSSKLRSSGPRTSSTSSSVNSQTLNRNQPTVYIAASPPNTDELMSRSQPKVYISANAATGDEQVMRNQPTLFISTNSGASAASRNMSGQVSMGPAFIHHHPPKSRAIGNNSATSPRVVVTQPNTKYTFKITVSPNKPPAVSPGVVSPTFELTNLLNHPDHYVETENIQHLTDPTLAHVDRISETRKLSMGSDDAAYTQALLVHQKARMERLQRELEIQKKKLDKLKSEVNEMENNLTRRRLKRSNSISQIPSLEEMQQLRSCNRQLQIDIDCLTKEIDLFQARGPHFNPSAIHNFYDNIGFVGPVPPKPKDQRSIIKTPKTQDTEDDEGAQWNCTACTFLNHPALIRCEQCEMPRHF

## IL-1β: human IL-1β from Calbiochem, pro-inflammatory cytokine
BMP7; added to E2
  effect on E2 inhibition of BMP7 transcripts: blocked this inhibition
ERα [1]
  hBMP7 proximal promoter reporter activity, combination with E2: restored the reporter activity to the baseline
ERα [2]
  expression of hBMP-7 promoter-controlled reporter on addition to E2: actively increased expression over the baseline

## 4-OH tamoxifen [4-OHT]
[3]
  IL-1β-dependent conversion to activator of ERα: failed to occur

## C[C@]12CCC(=O)C[C@@H]1CC[C@@H]1[C@@H]2CC[C@]2(C)[C@@H](O)CC[C@@H]12 [DHT, Dihydrotestosterone]
[4]
  activation of chimeric RARα: neither E2 nor DHT exerted activation effects

## 5′-GCACCGAAGUAUUGUCCAAdTdT-3′ (sense GCACCGAAGUAUUGUCCAATT; antisense UUGGACAAUACUUCGGUGCTT; siRNA; sugars from the 5' end r19 d2, backbone not given here) [N-CoR siRNA]
Androgen receptor (AR) [5]
  effect on bicalutamide-dependent repression of ARE reporter: switch from repression to activation

## DIASEASTMQAAQQ [mutated AX7AA (SEQ ID NO:26) sequence]
Androgen receptor (AR) [6]
  effect on IL-1β-mediated activator function of bicalutamide: failed to inhibit induction

## DILSEASTMQLLQQ [14mer synthetic peptide encompassing the AR LX7LL motif]
Androgen receptor (AR) [6]
  effect on IL-1β-mediated activator function of bicalutamide: specifically blocked
Androgen receptor (AR) [6]; peptide microinjected into RWPE1 cells pre-treated with TNFα, THP-1 macrophages, PSA promoter-dependent reporter
  effect on macrophage-induced agonistic switch of bicalutamide: blocked

## C[C@]12CC[C@@H]3c4ccc(O)cc4CC[C@H]3[C@@H]1CC[C@@H]2O [E2, 17-β-estradiol]
[4]
  activation of chimeric RARα: neither E2 nor DHT exerted activation effects
BMP7
  BMP7 transcript levels: decreased levels of BMP7 transcripts

B1: wild-type RARα (receptor, UniProt P10276 1-462, looked up)
chain: MASNSSSCPTPGGGHLNGYPVPPYAFFFPPMLGGLSPPGALTTLQHQLPVSGYSTPSPATIETQSSSSEEIVPSPPSPPPLPRIYKPCFVCQDKSSGYHYGVSACEGCKGFFRRSIQKNMVYTCHRDKNCIINKVTRNRCQYCRLQKCFEVGMSKESVRNDRNKKKKEVPKPECSESYTLTPEVGELIEKVRKAHQETFPALCQLGKYTTNNSSEQRVSLDIDLWDKFSELSTKCIIKTVEFAKQLPGFTTLTIADQITLLKAACLDILILRICTRYTPEQDTMTFSDGLTLNRTQMHNAGFGPLTDLVFAFANQLLPLEMDDAETGLLSAICLICGDRQDLEQPDRVDMLQEPLLEALKVYVRKRRPSRPHMFPKMLMKITDLRSISAKGAERVITLKMEIPGSMPPLIQEMLENSEGLDTLSGQPGGGGRDGGGLAPPPGSCSPSLSPSSNRSSPATHSP
notes: also called retinoic acid receptor
Endogenous TAB2
  binding result: no binding
